Data taken from patent US6096874A (Board of Regents, the University of Texas System, priority 1995, dated 2000).
Entries after “also recorded” stand apart in the source; their conditions may differ.

Columns and labels:
[1] = tested on: MCF-7 human breast cancer cells; experiment: MCF-7 human breast cancer xenograft growth in nude mice; format: in vivo, mouse; conditions: 50 μg daily s.c.
Source text: The cultures were free of mycoplasma and pathogenic murine viruses (assayed by Microbiological Associates, Bethesda, Md.). Female athymic NCr-nu/nu mice were obtained from the NCI-Frederick Cancer Research Facility (Frederick, Md.). The mice were maintained in specific-pathogen-free conditions in a facility approved by the American Association for Accreditation of Laboratory Animal Care. […] A 60-day release pellet containing […] 17-β estradiol (Innovative Research of America, Toledo, Ohio) was implanted s.c. in each animal. After 20 days the 17β estradiol […] removed from one group, and these mice were not treated further.

[2] = tested on: breast cancer; experiment: Response of PET-imaged patients to tamoxifen treatment; format: in vivo, human
[3] = tested on: breast cancer; conditions: unselected patients with breast cancer; cited from earlier work
[4] = Acute/immediate toxicity following i.v. injection in BALB/c mice; conditions: mouse, in vivo, iv
Procedure: Acute toxicity studies were performed in BALB/c female mice with doses tested at 20, 50 and 200 mg/kg (i.v., n=5 mice per dose).

| SMILES | ER(+) MCF-7 tumor growth (in words) [1] | Response of TX treat. ([2]; patient 1) | Response of TX treat. ([2]; patient 2) | Response of TX treat. ([2]; patient 3) | Response of TX treat. ([2]; patient 4) | Response of TX treat. ([2]; patient 5) | Response of TX treat. ([2]; patient 7) | Response of TX treat. ([2]; patient 9) | Response of TX treat. ([2]; patient 10) | Response to tamoxifen therapy (in words) ([2]; three patients with tumor uptake) | Positive therapy results [3] | MTD [4] |
| --- | --- | --- | --- | --- | --- | --- | --- | --- | --- | --- | --- | --- |
| CC/C(=C(\c1ccccc1)c1ccc(OCCN(C)C)cc1)c1ccccc1 [Compound I, Tamoxifen] | reduced ER(+) breast tumor growth; also recorded: growth of the MCF-7 tumors was greatly reduced | poor | poor | good | poor | good | poor | poor | good | positive response to tamoxifen therapy | 30% | – |
| CCN(CC)CCOc1ccc(C(=C(CCCI)c2ccccc2)c2ccccc2)cc1 [iodotamoxifen] | reduced ER(+) breast tumor growth; also recorded: growth of the MCF-7 tumors was greatly reduced | – | – | – | – | – | – | – | – | – | – | 50 mg/kg |
